The nature of data set [1]: Hydrodynamic diameter and polydispersity index by dynamic light scattering. The data set is classed as physicochemical. The source says:
(§1) [NT] antisense (SEQ ID NO: 2): [NT] where “d” denotes a DNA base), siFLuc-2 (sense (SEQ ID NO: 3): [NT] antisense (SEQ ID NO: 4): [NT] where “d” denotes a DNA base and “m” indicates a 2'-O-methyl RNA base), sinLuc (sense (SEQ ID NO: 5): [NT] antisense SEQ ID NO: 6): [NT] where “d” denotes a DNA base), […]1 (sense (SEQ ID NO: 7): [NT] antisense (SEQ ID NO: 8): [NT] where “d” denotes a DNA base and “m” indicates a 2'-O-methyl RNA base), siNT (sense (SEQ ID NO: 9): [NT] antisense (SEQ ID NO: 10): [NT] where “d” denotes a DNA base and “m” indicates a 2'-O-methyl RNA base), mFLuc (EZ Cap Firefly Luciferase mRNA (5-moUTP), ApexBio), rRNA or RNA from Torula utilis yeast (T.U. RNA) was diluted in citrate buffer (50 or 25 mM, pH 4), malate buffer (25 mM, pH 4.0) or acetate buffer (25 mM, pH 4.0). A lipid/drug mix concentration of 5.5 mM was used with a total flow rate of 9 mL/min at a 3:1 ratio of aqueous to organic phase. […] After formulation, buffer exchange into PBS or Tris-buffered saline (TBS; pH 8.5) was performed using Amicon Ultra-4 centrifugal filters (molecular weight cut-off 10 kDa). Hydrodynamic diameter, polydispersity index (PDI), and scattering intensity were measured by dynamic light scattering (DLS) using a DynaPro Plate Reader II (Wyatt Technologies). The instrument was configured with a 60 mW 830 nm laser and a detector angle of 158°. A 25 μL sample of each formulation was pipetted into each well of a 384-well plate and measured with 20 acquisitions per sample at 25° C. […] Quant-iT RiboGreen reagent was added, and fluorescence intensity was quantified using a Tecan Infinite […] plate reader.

For data set [2], the system named is SKOV3 cells. Kind of data set: Cellular uptake of DiD-labelled nanoparticles by fluorescence microscopy. To be noted: with DOPC or DSPE; 20 nM T.U. RNA, 3 h. The data set is classed as cell-based. Here is the method: 2.5-5.0×10^3 SKOV3 cells or 1.0×10^4 T47D cells in 25 μL were plated in each well of a 384-well plate (Greiner Bio-One 781097) and allowed to adhere overnight. For endocytosis blocking studies, cells were washed once with Hank's Balanced Salt Solution (HBSS), and then fresh media containing an endocytosis blocker was added and plates were incubated at 37° C. for 30 min prior to dosing. For ApoE supplementation studies and endocytosis-blocking studies, serum free media, serum free media supplemented with ApoE (1.5 μg/mL), complete media, or complete media with hydroxydynasore (20 μM) was added for 30 min prior to dosing). […] The plate was incubated at 37° C. for 3 h after which the media was removed, and the cells were washed with HBSS, fixed for 15 min with 4% (m/v) PFA in PBS, and stained for 15 min with 5 μg/mL Hoechst in PBS before imaging by wide-field fluorescence microscopy imaging as described below.
Fluorescence images were acquired using a Zeiss Apotome Live Cell System (Axio Observer Z.1 inverted fluorescence microscope) with a long working distance 40× Plan Neofluor objective (NA=0.6, Carl Zeiss Canada), and X-Cite 120 LED fluorescence lamp (Lumen Dynamics), and an […]

Data set [3] is described as follows: RNA encapsulation efficiency (modified Quant-iT RiboGreen assay) and loading. The data set is classed as physicochemical.
Text: as §1

The mark [4] stands for this setting: no cholesterol versus standard formulation.

Several values for one entry are separate records, joined by “and”; a condition that tells them apart may be missing. Equal values may be shown once.

As for `Fc1ccc(-n2cc(CCCCN3CCC4(CC3)OCc3ccccc34)c3ccccc32)cc1` [siramesine, reference compound], the “increase in particle size on removal of cholesterol” value in data set [1] (setting [4]) is 4 fold. The particle size in data set [1] (siRNA, standard formulation) is given as approximately 100 nm. For the same compound, the “uptake relative to DSPC-based nanoparticles” value in data set [2] is “significantly improve uptake”. Further, in data set [3] (natively ionizable drug in place of fulvestrant analog, standard formulation), the siRNA encapsulation efficiency was ~85% and ~95%. The “loss of encapsulated siRNA on removal of cholesterol” value in data set [3] (setting [4]) is on record as approximately 70%. Moreover, the “nanoparticle formation with RNA cargos of varying molecular weight” value in data set [3] (siRNA, T.U. RNA, rRNA, mRNA) is on record as “form nanoparticles encapsulating a range of RNA cargos”.

(Values after patent publication US20250017856A1, “CO-FORMULATION AND CO-DELIVERY OF IONIZABLE COLLOID FORMING DRUGS WITH NUCLEIC ACIDS” (THE GOVERNING COUNCIL OF THE UNIVERSITY OF TORONTO, priority 2023, published 2025).)
